In US9296769B2, “Tenofovir alafenamide hemifumarate” (Gilead Sciences, Inc., priority 2011, dated 2016):
Read-outs that look alike come from different tables or passages of the source.

Key:
[1] = From the text: Chemical stability of the hemifumarate form of tenofovir alafenamide was compared with the monofumarate form. […] Conditions evaluated include temperature, relative humidity (RH), and the open or closed state of the container cap.
[2] = remark: listed apart in the source
Procedure: DVS analysis was conducted using 4.951 mg of tenofovir alafenamide hemifumarate. The material was kept at 25° C. in nitrogen at humidities ranging from 10% to 90% relative humidity; each step was equilibrated for 120 minutes.

[3] = for Thermodynamic stability: solvents such as ACN, toluene, MTBE, acetone, THF, 2-methyl THF
[4] = 40° C./75% RH Cap Closed, 0 weeks
[5] = 40° C./75% RH Cap Closed, 1 week
[6] = 40° C./75% RH Cap Closed, 2 weeks
[7] = 40° C./75% RH Cap Closed, 4 weeks
[8] = 40° C./75% RH Cap Closed, 8 weeks
[9] = 40° C./75% RH Cap Open, 0 weeks
[10] = 40° C./75% RH Cap Open, 2 weeks
[11] = 40° C./75% RH Cap Open, 4 weeks
[12] = 40° C./75% RH Cap Open, 8 weeks

CC(C)OC(=O)[C@H](C)N[P@](=O)(CO[C@H](C)Cn1cnc2c(N)ncnc21)Oc1ccccc1 [Hemifumarate form, 9-[(R)-2-[[(S)-[[(S)-1-(isopropoxycarbonyl)ethyl]amino]phenoxyphosphinyl]methoxy]propyl]adenine]
% TA Area Normalized [1, 4]: 98.4%
% Total Deg. Products [1, 4]: 0.05%
% TA Area Normalized [1, 5]: 98.4%
% Total Deg. Products [1, 5]: 0.14%
% TA Area Normalized [1, 6]: 98.5%
% Total Deg. Products [1, 6]: 0.14%
% TA Area Normalized [1, 7]: 98.4%
% Total Deg. Products [1, 7]: 0.25%
% TA Area Normalized [1, 8]: 98.0%
% Total Deg. Products [1, 8]: 0.49%
% TA Area Normalized [1, 9]: 98.4%
% Total Deg. Products [1, 9]: 0.05%
% TA Area Normalized ([1]; 40° C./75% RH Cap Open, 1 week): 98.5%
% Total Deg. Products ([1]; 40° C./75% RH Cap Open, 1 week): 0.15%
% TA Area Normalized [1, 10]: 98.5%
% Total Deg. Products [1, 10]: 0.14%
% TA Area Normalized [1, 11]: 98.4%
% Total Deg. Products [1, 11]: 0.26%
% TA Area Normalized [1, 12]: 98.1%
% Total Deg. Products [1, 12]: 0.50%
% TA Area Normalized ([1]; 70° C. Cap Closed, 0 weeks): 98.4%
% Total Deg. Products ([1]; 70° C. Cap Closed, 0 weeks): 0.05%
% TA Area Normalized ([1]; 70° C. Cap Closed, 2 weeks): 98.5%
% Total Deg. Products ([1]; 70° C. Cap Closed, 2 weeks): 0.22%
% TA Area Normalized ([1]; 70° C. Cap Closed, 4 weeks): 98.4%
% Total Deg. Products ([1]; 70° C. Cap Closed, 4 weeks): 0.33%
Hygroscopicity ([2]; 25° C. in nitrogen, 10% to 90% relative humidity): nonhygroscopic
Water absorbed ([2]; 25° C., relative humidity of 90%): 0.65%
Thermodynamic stability ([3]; ethyl acetate, listed as tenofovir alafenamide hemifumarate): thermodynamically stable in most solvents

CC(C)OC(=O)[C@H](C)N[P@](=O)(CO[C@H](C)Cn1cnc2c(N)ncnc21)Oc1ccccc1 [Monofumarate form, 9-[(R)-2-[[(S)-[[(S)-1-(isopropoxycarbonyl)ethyl]amino]phenoxyphosphinyl]methoxy]propyl]adenine]
% TA Area Normalized [1, 4]: 97.1%
% Total Deg. Products [1, 4]: 0.69%
% TA Area Normalized [1, 5]: 97.0%
% Total Deg. Products [1, 5]: 0.87%
% TA Area Normalized [1, 6]: 96.6%
% Total Deg. Products [1, 6]: 1.18%
% TA Area Normalized [1, 7]: 96.4%
% Total Deg. Products [1, 7]: 1.49%
% TA Area Normalized [1, 8]: 95.4%
% Total Deg. Products [1, 8]: 2.36%
% TA Area Normalized [1, 9]: 97.1%
% Total Deg. Products [1, 9]: 0.69%
% TA Area Normalized ([1]; 40° C./75% RH Cap Open, 1 week): 96.9%
% Total Deg. Products ([1]; 40° C./75% RH Cap Open, 1 week): 0.90%
% TA Area Normalized [1, 10]: 96.6%
% Total Deg. Products [1, 10]: 1.10%
% TA Area Normalized [1, 11]: 96.2%
% Total Deg. Products [1, 11]: 1.67%
% TA Area Normalized [1, 12]: 95.0%
% Total Deg. Products [1, 12]: 2.74%
% TA Area Normalized ([1]; 70° C. Cap Closed, 0 weeks): 97.1%
% Total Deg. Products ([1]; 70° C. Cap Closed, 0 weeks): 0.69%
% TA Area Normalized ([1]; 70° C. Cap Closed, 2 weeks): 96.2%
% Total Deg. Products ([1]; 70° C. Cap Closed, 2 weeks): 1.83%
% TA Area Normalized ([1]; 70° C. Cap Closed, 4 weeks): 93.3%
% Total Deg. Products ([1]; 70° C. Cap Closed, 4 weeks): 4.78%
Form conversion when suspended in solvent ([3]; ACN, ethyl acetate, MTBE and acetone): partially converts to the hemifumarate form
Form conversion when suspended in solvent ([3]; THF and 2-methyl THF): fully converts to the hemifumarate form
Thermodynamic stability ([3]; ethyl acetate): not thermodynamically stable
